Assay results taken from ChEMBL document CHEMBL1201862, “PubChem BioAssay data set” (2004).
The source made the active and inactive calls.

Columns and labels:
[1] = biological target: Glyceraldehyde-3-phosphate dehydrogenase (Homo sapiens, UniProt P04406)
[2] = biological target: T1, Alkaline phosphatase, tissue-nonspecific isozyme (Homo sapiens, UniProt P05186); assay: human TNAP enzyme inhibitors, SAR follow-up, biochemical, luminescent, dose response (AID 1056)
T1 sequence (P05186 whole entry): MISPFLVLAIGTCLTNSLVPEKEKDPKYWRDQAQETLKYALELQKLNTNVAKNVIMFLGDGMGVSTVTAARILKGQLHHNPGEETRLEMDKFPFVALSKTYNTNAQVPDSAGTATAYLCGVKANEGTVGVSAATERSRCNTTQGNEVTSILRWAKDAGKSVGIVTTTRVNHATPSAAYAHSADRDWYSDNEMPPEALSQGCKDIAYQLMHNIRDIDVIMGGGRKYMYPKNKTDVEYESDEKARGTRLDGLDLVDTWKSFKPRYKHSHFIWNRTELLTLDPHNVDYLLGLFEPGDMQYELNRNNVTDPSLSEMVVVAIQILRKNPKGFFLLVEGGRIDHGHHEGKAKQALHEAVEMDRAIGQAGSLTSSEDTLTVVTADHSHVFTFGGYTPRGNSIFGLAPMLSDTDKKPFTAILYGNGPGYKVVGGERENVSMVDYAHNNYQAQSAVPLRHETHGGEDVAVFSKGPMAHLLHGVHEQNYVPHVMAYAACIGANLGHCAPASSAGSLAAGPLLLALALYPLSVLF

[3] = biological target: T2, G-protein coupled receptor 35 (Homo sapiens, UniProt Q9HC97); assay: SAR analysis of Agonists of the GPR35 Receptor using an Image-Based Assay - Set 4. [Related pubchem assays (depositor defined):AID2013, AID2026]; type: functional
T2 sequence (Q9HC97 whole entry): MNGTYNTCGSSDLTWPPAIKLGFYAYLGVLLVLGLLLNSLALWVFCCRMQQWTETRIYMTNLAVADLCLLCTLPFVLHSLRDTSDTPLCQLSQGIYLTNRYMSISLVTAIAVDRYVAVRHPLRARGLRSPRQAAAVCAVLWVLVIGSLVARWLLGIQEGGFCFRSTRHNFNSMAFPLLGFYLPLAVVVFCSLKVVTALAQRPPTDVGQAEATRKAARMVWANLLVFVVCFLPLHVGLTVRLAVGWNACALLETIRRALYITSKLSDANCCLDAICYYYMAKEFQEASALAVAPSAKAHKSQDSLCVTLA

Cannabinoid receptor 1 [4] = biological target: T3, Cannabinoid receptor 1 (Homo sapiens, UniProt P21554); assay: SAR analysis of agonists of the Cannabinoid Receptor 1 using an Image-Based Assay - Set 4. [Related pubchem assays (depositor defined):AID2013, AID2026]; type: functional
T3 sequence (P21554 whole entry): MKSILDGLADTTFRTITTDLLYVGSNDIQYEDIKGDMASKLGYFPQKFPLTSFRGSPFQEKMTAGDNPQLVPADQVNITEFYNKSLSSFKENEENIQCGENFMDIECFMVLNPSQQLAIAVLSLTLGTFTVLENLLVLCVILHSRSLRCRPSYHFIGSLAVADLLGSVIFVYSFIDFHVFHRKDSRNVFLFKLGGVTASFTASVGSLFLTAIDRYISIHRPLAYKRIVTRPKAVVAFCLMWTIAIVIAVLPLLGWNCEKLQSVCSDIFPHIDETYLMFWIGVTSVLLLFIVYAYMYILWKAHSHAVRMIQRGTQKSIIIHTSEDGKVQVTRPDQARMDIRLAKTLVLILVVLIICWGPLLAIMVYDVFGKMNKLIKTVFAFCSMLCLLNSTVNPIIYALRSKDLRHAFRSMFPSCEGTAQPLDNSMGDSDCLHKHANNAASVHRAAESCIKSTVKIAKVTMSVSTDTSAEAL

[5] = biological target: T2, G-protein coupled receptor 35; assay: SAR analysis of Antagonists of the GPR35 Receptor using an Image-Based Assay - Set 6. [Related pubchem assays (depositor defined):AID2013, AID2026]; type: functional
Cannabinoid receptor 1 [6] = biological target: T3, Cannabinoid receptor 1; assay: SAR analysis of antagonists of the Cannabinoid Receptor 1 using an Image-Based Assay - Set 4. [Related pubchem assays (depositor defined):AID2013, AID2026]; type: functional
[7] = biological target: G-protein coupled receptor 55 (Homo sapiens, UniProt Q9Y2T6); assay: SAR Analysis of Selective Antagonists of GPR55 using an Image-Based Assay - Set 4. [Related pubchem assays (depositor defined):AID2013, AID2026]; type: functional;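 also: antagonism of response to 5 µM lysophosphatidylinositol agonist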
Sequence of G-protein coupled receptor 55 (Q9Y2T6 whole entry): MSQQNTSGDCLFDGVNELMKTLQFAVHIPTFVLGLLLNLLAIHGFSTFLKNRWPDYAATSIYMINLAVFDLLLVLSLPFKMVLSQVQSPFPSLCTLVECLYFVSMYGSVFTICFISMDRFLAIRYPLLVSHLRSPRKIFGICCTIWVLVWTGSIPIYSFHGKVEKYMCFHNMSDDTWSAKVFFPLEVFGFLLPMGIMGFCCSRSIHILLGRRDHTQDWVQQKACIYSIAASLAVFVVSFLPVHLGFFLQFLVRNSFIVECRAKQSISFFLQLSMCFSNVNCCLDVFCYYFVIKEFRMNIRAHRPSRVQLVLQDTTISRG

Cannabinoid receptor 2 [8] = biological target: T4, Cannabinoid receptor 2 (Homo sapiens, UniProt P34972); assay: SAR analysis of antagonists of the Cannabinoid Receptor 2 using an Image-Based Assay - Set 3. [Related pubchem assays (depositor defined):AID2013, AID2026]; type: functional
T4 sequence (P34972 whole entry): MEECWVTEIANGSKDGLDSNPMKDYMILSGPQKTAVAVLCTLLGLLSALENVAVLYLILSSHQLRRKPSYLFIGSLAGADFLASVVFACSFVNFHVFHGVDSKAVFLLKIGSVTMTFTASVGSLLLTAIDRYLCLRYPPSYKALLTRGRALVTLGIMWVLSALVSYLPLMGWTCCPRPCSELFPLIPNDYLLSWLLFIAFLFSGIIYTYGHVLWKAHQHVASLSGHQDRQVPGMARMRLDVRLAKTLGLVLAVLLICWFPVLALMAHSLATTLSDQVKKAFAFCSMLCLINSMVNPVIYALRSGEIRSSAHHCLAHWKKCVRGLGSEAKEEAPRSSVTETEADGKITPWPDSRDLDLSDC

Cannabinoid receptor 2 [9] = biological target: T4, Cannabinoid receptor 2; assay: SAR analysis of agonists of the Cannabinoid Receptor 2 using an Image-Based Assay - Set 3. [Related pubchem assays (depositor defined):AID2013, AID2026]; type: functional
Mu-type opioid receptor [10] = biological target: T5, Mu-type opioid receptor (Homo sapiens, UniProt P35372); assay: MOR agonists by imaging, SAR follow-up, image-based (AID 2352); type: functional
T5 sequence (P35372 whole entry): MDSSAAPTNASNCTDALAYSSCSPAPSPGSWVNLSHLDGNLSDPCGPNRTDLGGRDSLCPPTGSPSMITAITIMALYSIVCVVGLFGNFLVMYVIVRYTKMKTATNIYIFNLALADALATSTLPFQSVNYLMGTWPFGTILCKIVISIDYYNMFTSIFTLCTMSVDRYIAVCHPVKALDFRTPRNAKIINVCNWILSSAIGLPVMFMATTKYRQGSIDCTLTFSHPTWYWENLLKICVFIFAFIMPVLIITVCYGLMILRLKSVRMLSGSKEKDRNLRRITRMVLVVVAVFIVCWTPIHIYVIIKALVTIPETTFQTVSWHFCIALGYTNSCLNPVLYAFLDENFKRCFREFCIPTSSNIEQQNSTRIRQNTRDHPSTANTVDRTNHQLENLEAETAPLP

[11] = biological target: T6, Delta-type opioid receptor (Homo sapiens, UniProt P41143); assay: DOR agonists, SAR follow-up, image-based (AID 2370); type: functional
T6 sequence (P41143 whole entry): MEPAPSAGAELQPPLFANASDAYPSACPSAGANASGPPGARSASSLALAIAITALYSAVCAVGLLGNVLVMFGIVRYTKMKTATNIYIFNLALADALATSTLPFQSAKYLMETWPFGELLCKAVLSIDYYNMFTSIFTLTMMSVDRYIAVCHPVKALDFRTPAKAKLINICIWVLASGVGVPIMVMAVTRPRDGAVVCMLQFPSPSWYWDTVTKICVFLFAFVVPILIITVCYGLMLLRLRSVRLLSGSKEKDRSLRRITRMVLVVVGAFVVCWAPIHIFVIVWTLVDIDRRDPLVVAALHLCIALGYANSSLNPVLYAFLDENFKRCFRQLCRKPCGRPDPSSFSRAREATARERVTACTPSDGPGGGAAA

[12] = biological target: T7, Kappa-type opioid receptor (Homo sapiens, UniProt P41145); assay: KOR antagonists by imaging, SAR follow-up, image-based (AID 2348); type: functional
T7 sequence (P41145 whole entry): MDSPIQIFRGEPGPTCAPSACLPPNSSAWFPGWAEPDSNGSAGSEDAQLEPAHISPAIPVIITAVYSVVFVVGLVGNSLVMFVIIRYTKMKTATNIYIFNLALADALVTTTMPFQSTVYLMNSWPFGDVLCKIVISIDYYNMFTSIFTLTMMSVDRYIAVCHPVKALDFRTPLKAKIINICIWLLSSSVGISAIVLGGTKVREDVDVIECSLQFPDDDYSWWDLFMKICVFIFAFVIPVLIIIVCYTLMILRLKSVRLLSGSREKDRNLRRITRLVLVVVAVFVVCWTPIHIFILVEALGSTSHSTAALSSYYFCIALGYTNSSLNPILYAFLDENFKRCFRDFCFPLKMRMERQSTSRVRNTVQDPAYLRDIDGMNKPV

Mu-type opioid receptor [13] = biological target: T5, Mu-type opioid receptor; assay: MOR antagonists, SAR follow-up, image-based (AID 2420); type: functional;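 also: compounds added before stimulation of receptor with agonist DAMGO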
[14] = biological target: T7, Kappa-type opioid receptor; assay: KOR agonist analogs, imaging readout, SAR follow-up, image-based (AID 2359); type: functional
[15] = biological target: T6, Delta-type opioid receptor; assay: DOR antagonists, SAR follow-up, image-based (AID 2357); type: functional
[16] = biological target: T7, Kappa-type opioid receptor; assay: kappa opioid receptor blockers, cell-based, luminescence, beta-arrestin, SAR follow-up (AID 2285); type: functional
SUMO-activating enzyme [17] = biological target: T8, SUMO-activating enzyme (Homo sapiens, UniProt Q9UBT2); assay: SUMOylation inhibitor hit validation, confirmation, SUMOylation inhibitor project, biochemical, AlphaScreen (AID 2018); type: functional
T8 sequence (Q9UBE0 whole entry): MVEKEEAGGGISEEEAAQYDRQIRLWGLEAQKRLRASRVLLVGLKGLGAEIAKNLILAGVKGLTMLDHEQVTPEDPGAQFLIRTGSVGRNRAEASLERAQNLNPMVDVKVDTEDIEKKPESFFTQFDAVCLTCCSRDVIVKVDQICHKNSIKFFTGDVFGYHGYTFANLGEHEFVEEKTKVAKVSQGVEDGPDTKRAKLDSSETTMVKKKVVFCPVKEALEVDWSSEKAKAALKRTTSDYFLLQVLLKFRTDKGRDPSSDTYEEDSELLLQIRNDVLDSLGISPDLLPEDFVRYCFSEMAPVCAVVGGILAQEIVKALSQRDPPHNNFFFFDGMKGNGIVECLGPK
T8 sequence (Q9UBT2 whole entry): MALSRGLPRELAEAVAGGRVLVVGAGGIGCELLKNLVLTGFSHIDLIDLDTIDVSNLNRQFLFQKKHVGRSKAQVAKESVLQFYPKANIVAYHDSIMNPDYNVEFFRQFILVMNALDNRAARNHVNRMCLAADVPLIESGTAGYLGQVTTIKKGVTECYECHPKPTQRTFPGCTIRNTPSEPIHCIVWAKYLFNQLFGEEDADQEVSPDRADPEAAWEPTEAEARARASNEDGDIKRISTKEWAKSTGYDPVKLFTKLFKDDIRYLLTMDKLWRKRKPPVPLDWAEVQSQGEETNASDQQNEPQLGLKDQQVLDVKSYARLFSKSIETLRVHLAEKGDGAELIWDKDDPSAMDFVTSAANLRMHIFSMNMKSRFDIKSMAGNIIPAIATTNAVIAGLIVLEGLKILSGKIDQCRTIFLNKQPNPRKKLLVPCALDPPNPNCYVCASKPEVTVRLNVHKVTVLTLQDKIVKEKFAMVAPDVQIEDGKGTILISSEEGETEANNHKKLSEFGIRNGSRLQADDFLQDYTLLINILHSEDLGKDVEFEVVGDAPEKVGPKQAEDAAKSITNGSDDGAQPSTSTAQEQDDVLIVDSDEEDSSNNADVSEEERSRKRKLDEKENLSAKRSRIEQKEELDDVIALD

SUMO-activating enzyme [18] = biological target: T8, SUMO-activating enzyme; assay: inhibitors of in vitro SUMOylation cascade, primary screen, biochemical, HTRF, uHTS (AID 2006); type: protein-complex assay
[19] = NIH-3T3 fibroblast cytotoxicity, dose response, cytotoxicity control, cell-based, fluorescence, Alamar Blue, secondary assay (AID 2327); type: functional;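 also: NIH-3T3 mouse fibroblasts cultured with fluconazole at 8 µg/mL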
[20] = system: Streptococcus sp. 'group A'; assay: growth inhibition of control SK(-) GAS strain, dose response, counter-screen for streptokinase expression inhibitor project, luminescence, kanamycin, BacTiterGlo, confirmation (AID 1900); type: functional, organism-based
Streptokinase A = biological target: T9, Streptokinase A (Streptococcus pyogenes serotype M1, UniProt P10520); assay: S. pyogenes streptokinase expression inhibitors, potency, dose response, plasminogen activation absorbance, OD405 (AID 1914); type: functional, Streptococcus pyogenes M1 GAS;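 also: secreted streptokinase activity via plasminogen activation per viability signal from cell pellet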
T9 sequence (P10520 whole entry): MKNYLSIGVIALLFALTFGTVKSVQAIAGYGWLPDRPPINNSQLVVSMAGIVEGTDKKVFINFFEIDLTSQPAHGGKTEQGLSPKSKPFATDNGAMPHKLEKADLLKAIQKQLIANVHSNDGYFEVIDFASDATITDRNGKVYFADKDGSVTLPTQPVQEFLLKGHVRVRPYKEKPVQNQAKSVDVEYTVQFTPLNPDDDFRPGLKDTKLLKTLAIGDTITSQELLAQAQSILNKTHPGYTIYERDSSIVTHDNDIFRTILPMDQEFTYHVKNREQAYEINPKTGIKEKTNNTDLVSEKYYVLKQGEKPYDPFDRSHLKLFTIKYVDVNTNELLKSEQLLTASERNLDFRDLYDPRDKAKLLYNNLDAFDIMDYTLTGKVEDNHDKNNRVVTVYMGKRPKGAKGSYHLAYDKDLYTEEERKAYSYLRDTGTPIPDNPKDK

[21] = C. albicans growth with fluconazole, confirmation, fluorescence, retest (AID 2467); type: functional, cell-based
Streptococcus = assay: Group A Streptococcus viability loss, dose response, counter-screen for streptokinase expression inhibitor project, luminescence, BacTiterGlo (AID 1915); type: functional, organism-based;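 also: potency for reduction of bacterial viability or growth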
T-cell = assay: inhibitors of CD8+ T cell–vesicle binding, dose response, mouse 2C CD8+ T cells, flow cytometry (AID 485284); type: functional
[22] = biological target: Heat shock protein HSP 90-alpha (Homo sapiens, UniProt P07900); type: functional, organism-based
INS1 = assay: beta cell apoptosis inhibitors, cytokine rescue, dose response, luminescence, retest (AID 449756); type: functional, cell-based; conditions: Rattus norvegicus;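 also: cell death triggered by IL-1 beta plus TNF-alpha plus IFN-gamma mixture; protective hits raise ATP signal compared with cytokine alone wells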
[23] = biological target: Dual specificity tyrosine-phosphorylation-regulated kinase 1A (Rattus norvegicus, UniProt Q63470); type: biochemical, Homo sapiens

Sequence of Glyceraldehyde-3-phosphate dehydrogenase (P04406 whole entry): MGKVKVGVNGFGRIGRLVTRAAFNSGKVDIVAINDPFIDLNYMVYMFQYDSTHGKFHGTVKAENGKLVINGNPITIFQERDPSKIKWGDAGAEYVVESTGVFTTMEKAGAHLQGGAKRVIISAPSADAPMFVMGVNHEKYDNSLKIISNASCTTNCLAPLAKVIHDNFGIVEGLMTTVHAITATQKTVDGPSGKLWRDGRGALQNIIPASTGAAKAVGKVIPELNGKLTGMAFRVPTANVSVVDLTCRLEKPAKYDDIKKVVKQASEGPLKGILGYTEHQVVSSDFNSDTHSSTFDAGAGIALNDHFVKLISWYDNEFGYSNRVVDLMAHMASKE

Compound: COc1ccc(Cc2nnc(N3C(=O)[C@H]4CCCC[C@H]4C3=O)[nH]2)cc1
- IC50 [1]: > 100 µM (not active)
- IC50 [2]: > 100 µM (inactive)

Compound: CCOc1ccc(-c2n[nH]c(C)c2-c2ccc(OC)cc2)c(O)c1
- EC50 [3]: 25.5 µM (inactive)
- EC50 (Cannabinoid receptor 1 [4]): > 32 µM (inactive)
- IC50 [5]: > 32 µM (inactive)
- IC50 (Cannabinoid receptor 1 [6]): 0.85 µM (active)
- IC50 [7]: 15.6 µM (inactive)
- IC50 (Cannabinoid receptor 2 [8]): 3.79 µM (active)
- EC50 (Cannabinoid receptor 2 [9]): 31.6 µM (inactive)

Compound: O=C(NC(NC(=S)Nc1ccc(Cl)c(Cl)c1)C(Cl)(Cl)Cl)OCc1ccccc1 (centres undefined)
- EC50 (Mu-type opioid receptor [10]): > 32 µM (inactive)
- EC50 [11]: > 32 µM (inactive)
- IC50 [12]: 11.9 µM (inactive)
- IC50 (Mu-type opioid receptor [13]): > 32 µM (inactive)
- EC50 [14]: > 32 µM (inactive)
- IC50 [15]: > 32 µM (inactive)
- IC50 [16]: > 10 µM (inactive)

Compound: Cc1ccc(C(C)C(=O)N2CCC(n3nc(-c4ccccc4)oc3=O)CC2)cc1 (centres undefined)
- EC50 [3]: > 32 µM (inactive)
- EC50 (Cannabinoid receptor 1 [4]): > 32 µM (inactive)
- IC50 [5]: > 32 µM (inactive)
- IC50 (Cannabinoid receptor 1 [6]): 3.31 µM (active)
- IC50 [7]: 7.6 µM (active)
- IC50 (Cannabinoid receptor 2 [8]): 22.9 µM (inactive)
- EC50 (Cannabinoid receptor 2 [9]): > 32 µM (inactive)

Compound: Sc1nnc(-c2ccncc2)n1/N=C/c1cn(-c2ccccc2)nc1-c1ccc(Cl)cc1
- IC50 (SUMO-activating enzyme [17]): 3.28 µM (active)
- IC50 (SUMO-activating enzyme [18]): 28.8 µM (active)

Compound: C=CC(C)(C)c1c(O)c(CC=C(C)C)c(O)c2c(=O)c3ccc(O)c(O)c3oc12 [GERONTOXANTHONE I]
- EC50 [19]: > 160 µM (inconclusive)
- EC50 [20]: 2.29 µM (active)
- EC50 (Streptokinase A): > 150 µM (not active)
- EC50 [21]: > 38 µM (not active)
- EC50 (Streptococcus): 7.75 µM (active)
- EC50 (T-cell): 2.86 µM (active)
- AC50 [22]: 8.03 µM (active)
- AC50 (INS1): 3.34 µM (active)
- AC50 [23]: 8.27 µM (active)
